In PubChem BioAssay AID330 (DTP/NCI, 2004):
Several values for one entry are separate records, joined by “and”; a condition that tells them apart may be missing. Identical values can stand only once. Inconclusive results and toxic doses are left out. Rule for the calls: active = survival T/C of 150% or more; inactive = T/C below 125% in these data.

System: P388 leukemia ip, CD2F1 mice, survival T/C
Assay: NCI In Vivo Anticancer Drug Screen. Data for tumor model P388 Leukemia (intraperitoneal) in CD2F1 (CDF1) mice
Conditions: endpoint: median survival time, higher = longer survival
Outline: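 Mice carrying the transplanted tumor received test compound or vehicle. Survival was recorded in each group, and the value is the treated-group measurement divided by that of the vehicle-treated control group.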

[1] = dose: 25.0 mg/kg/injection, schedule: Q01DX009 (ip), vehicle: saline
[2] = dose: 50.0 mg/kg/injection, schedule: Q01DX009 (ip), vehicle: saline
[3] = dose: 100.0 mg/kg/injection, schedule: Q01DX009 (ip), vehicle: saline
[4] = dose: 200.0 mg/kg/injection, schedule: Q01DX009 (ip), vehicle: saline
[5] = dose: 50.0 mg/kg/injection, schedule: Q01DX005 (ip), vehicle: saline with Tween-80
[6] = dose: 100.0 mg/kg/injection, schedule: Q01DX005 (ip), vehicle: saline with Tween-80
[7] = dose: 200.0 mg/kg/injection, schedule: Q01DX005 (ip), vehicle: saline with Tween-80

Measured: T/C

ClC1=NC(Cl)C(Cl)=N/C1=N\c1ncn[nH]1 (stereo not given)
inactive: dose: 4.4 mg/kg/injection, schedule: Q04DX003 (ip), vehicle: saline with Tween-80 100 % of control | dose: 6.6 mg/kg/injection, schedule: Q04DX003 (ip), vehicle: saline with Tween-80 100 % of control | dose: 10.0 mg/kg/injection, schedule: Q04DX003 (ip), vehicle: saline with Tween-80 90 % of control | dose: 15.0 mg/kg/injection, schedule: Q04DX003 (ip), vehicle: saline with Tween-80 104 % of control

C/C(N)=N/OCc1ccccc1
inactive: dose: 50.0 mg/kg/injection, schedule: Q01DX005 (ip), vehicle: Klucel + Tween-80 98 % of control | dose: 50.0 mg/kg/injection, schedule: Q01DX005 (ip), vehicle: saline 92 % of control | dose: 100.0 mg/kg/injection, schedule: Q01DX005 (ip), vehicle: Klucel + Tween-80 102 % of control | dose: 100.0 mg/kg/injection, schedule: Q01DX005 (ip), vehicle: saline 107 % of control | dose: 200.0 mg/kg/injection, schedule: Q01DX005 (ip), vehicle: Klucel + Tween-80 102 % of control | dose: 200.0 mg/kg/injection, schedule: Q01DX005 (ip), vehicle: saline 102 % of control

O=C(O)CCCSC(=S)c1ccccc1
inactive: dose: 12.5 mg/kg/injection, schedule: Q01DX009 (ip), vehicle: Klucel (hydroxypropylcellulose) (HPC) 102 % of control | dose: 25.0 mg/kg/injection, schedule: Q01DX009 (ip), vehicle: Klucel (hydroxypropylcellulose) (HPC) 100 % of control | dose: 50.0 mg/kg/injection, schedule: Q01DX009 (ip), vehicle: Klucel (hydroxypropylcellulose) (HPC) 98 % of control and 105 % of control | dose: 200.0 mg/kg/injection, schedule: Q01DX009 (ip), vehicle: Klucel (hydroxypropylcellulose) (HPC) 101 % of control

COc1ccc(C(CC(=O)N(CCCl)CCCl)CC(=O)N(CCCl)CCCl)cc1
inactive: dose: 100.0 mg/kg/injection, schedule: Q01DX001 (ip), vehicle: suspension in saline 108 % of control | dose: 200.0 mg/kg/injection, schedule: Q01DX001 (ip), vehicle: suspension in saline 119 % of control

Cl
inactive: dose: 6.25 mg/kg/injection, schedule: Q01DX009 (ip), vehicle: saline with Tween-80 95 % of control | dose: 0.01 % in 0.5 ml injection vol, schedule: Q01DX009 (ip), vehicle: water 100 % of control | dose: 12.5 mg/kg/injection, schedule: Q01DX009 (ip), vehicle: saline with Tween-80 100 % of control | dose: 0.02 % in 0.5 ml injection vol, schedule: Q01DX009 (ip), vehicle: water 101 % of control and 92 % of control | dose: 25.0 mg/kg/injection, schedule: Q01DX009 (ip), vehicle: saline with Tween-80 100 % of control | [1] 106 % of control | dose: 0.04 % in 0.5 ml injection vol, schedule: Q01DX009 (ip), vehicle: water 102 % of control and 108 % of control | [2] 104 % of control | dose: 50.0 mg/kg/injection, schedule: Q#A X018 (ip), vehicle: saline 99 % of control | dose: 0.08 % in 0.5 ml injection vol, schedule: Q01DX009 (ip), vehicle: water 100 % of control and 88 % of control | [3] 101 % of control | dose: 100.0 mg/kg/injection, schedule: Q#A X018 (ip), vehicle: saline 105 % of control | dose: 0.16 % in 0.5 ml injection vol, schedule: Q01DX009 (ip), vehicle: water 88 % of control | [4] 110 % of control and 97 % of control | dose: 200.0 mg/kg/injection, schedule: Q#A X018 (ip), vehicle: saline 97 % of control | dose: 0.31 % in 0.5 ml injection vol, schedule: Q01DX009 (ip), vehicle: water 88 % of control | dose: 400.0 mg/kg/injection, schedule: Q01DX009 (ip), vehicle: saline 95 % of control | dose: 400.0 mg/kg/injection, schedule: Q#A X018 (ip), vehicle: saline 87 % of control | dose: 800.0 mg/kg/injection, schedule: Q01DX009 (ip), vehicle: saline 103 % of control

O=S1(=O)N=C(Sc2nc3ccccc3s2)c2ccccc21
inactive: [5] 102 % of control | [6] 107 % of control | [7] 117 % of control

CCc1cccc(C)c1NC(=O)/C(Cl)=C(\Cl)C(=O)O
inactive: dose: 60.0 mg/kg/injection, schedule: Q01DX005 (ip), vehicle: saline with Tween-80 104 % of control | dose: 120.0 mg/kg/injection, schedule: Q01DX005 (ip), vehicle: saline with Tween-80 106 % of control

NC(=S)N/N=C/c1ccnnc1
inactive: dose: 3.12 mg/kg/injection, schedule: Q04DX003 (ip), vehicle: saline 104 % of control and 97 % of control | dose: 6.25 mg/kg/injection, schedule: Q04DX003 (ip), vehicle: saline 100 % of control and 97 % of control | dose: 12.5 mg/kg/injection, schedule: Q04DX003 (ip), vehicle: saline 104 % of control and 108 % of control | dose: 25.0 mg/kg/injection, schedule: Q04DX003 (ip), vehicle: saline 98 % of control and 100 % of control | dose: 25.0 mg/kg/injection, schedule: Q04DX003 (ip), vehicle: suspension in saline 99 % of control | dose: 100.0 mg/kg/injection, schedule: Q04DX003 (ip), vehicle: saline 103 % of control | dose: 200.0 mg/kg/injection, schedule: Q04DX003 (ip), vehicle: saline 97 % of control | dose: 400.0 mg/kg/injection, schedule: Q04DX003 (ip), vehicle: saline 97 % of control

CC(=O)OCC1OC2OC(C)(OC(C)C)OC2C(OC(C)=O)C1OC(C)=O (stereo not given)
inactive: dose: 4.0 mg/kg/injection, schedule: Q01DX009 (ip), vehicle: water 106 % of control | dose: 8.0 mg/kg/injection, schedule: Q01DX009 (ip), vehicle: water 102 % of control | dose: 16.0 mg/kg/injection, schedule: Q01DX009 (ip), vehicle: water 100 % of control | dose: 32.0 mg/kg/injection, schedule: Q01DX009 (ip), vehicle: water 99 % of control | dose: 50.0 mg/kg/injection, schedule: Q01DX009 (ip), vehicle: other 108 % of control | dose: 64.0 mg/kg/injection, schedule: Q01DX009 (ip), vehicle: water 98 % of control | dose: 100.0 mg/kg/injection, schedule: Q01DX009 (ip), vehicle: other 108 % of control | dose: 200.0 mg/kg/injection, schedule: Q01DX009 (ip), vehicle: other 102 % of control | dose: 400.0 mg/kg/injection, schedule: Q01DX009 (ip), vehicle: other 102 % of control

NCC=C1C2CC3CC(C2)CC1C3
inactive: dose: 6.25 mg/kg/injection, schedule: Q01DX009 (ip), vehicle: saline 105 % of control and 107 % of control and 120 % of control | dose: 12.5 mg/kg/injection, schedule: Q01DX009 (ip), vehicle: saline 107 % of control (2×) and 117 % of control | [1] 111 % of control and 94 % of control | [2] 103 % of control

COc1cccc(/C=C/C(C)=N/NC(N)=S)c1
inactive: dose: 6.25 mg/kg/injection, schedule: Q01DX005 (ip), vehicle: saline with Tween-80 107 % of control | dose: 12.5 mg/kg/injection, schedule: Q01DX005 (ip), vehicle: saline with Tween-80 107 % of control | dose: 25.0 mg/kg/injection, schedule: Q01DX005 (ip), vehicle: saline with Tween-80 111 % of control | [5] 118 % of control | [6] 101 % of control

Fc1ccc(-c2nc3cc(-c4ccccc4)[nH]n3c2N=Nc2ccccc2)cc1
inactive: [5] 105 % of control | [6] 103 % of control | [7] 108 % of control

COc1ccc(C(C)=C2C=C(C(C)(C)C)C(=O)C(C(C)(C)C)=C2)cc1
inactive: dose: 50.0 mg/kg/injection, schedule: Q01DX005 (ip), vehicle: saline + Tween-80 + alcohol 111 % of control | dose: 100.0 mg/kg/injection, schedule: Q01DX005 (ip), vehicle: saline + Tween-80 + alcohol 109 % of control | dose: 200.0 mg/kg/injection, schedule: Q01DX005 (ip), vehicle: saline + Tween-80 + alcohol 113 % of control

NN/C(N)=N/S(=O)(=O)c1ccccc1
inactive: dose: 50.0 mg/kg/injection, schedule: Q01DX005 (ip), vehicle: Klucel (hydroxypropylcellulose) (HPC) 107 % of control | dose: 100.0 mg/kg/injection, schedule: Q01DX005 (ip), vehicle: Klucel (hydroxypropylcellulose) (HPC) 102 % of control

C=C(C)C(=O)NCC(=O)Nc1ccc(CC(NC(C)=O)C(=O)OC)cc1 (stereo not given)
inactive: [5] 102 % of control | [6] 100 % of control | [7] 89 % of control

Cn1c(Cc2ccccc2)c(C(=O)/C=C/c2ccccc2)c(=O)n(C)c1=O
inactive: [5] 103 % of control | [6] 100 % of control | [7] 99 % of control

O=S(=O)(O)c1ccc2c(N=Nc3ccccc3[As](=O)(O)O)c(O)c(S(=O)(=O)O)cc2c1
inactive: dose: 50.0 mg/kg/injection, schedule: Q01DX009 (ip), vehicle: saline with Tween-80 104 % of control | dose: 100.0 mg/kg/injection, schedule: Q01DX009 (ip), vehicle: saline with Tween-80 113 % of control

CCC(=O)NS(=O)(=O)c1cccnc1Nc1c(Cl)cccc1Cl
inactive: [2] 96 % of control | [3] 96 % of control | [4] 100 % of control
